Measurements reported in patent publication US20020193379A1, “Compositions and methods for decreasing the risk of or preventing neural tube disorders in mammals” (Insmed Incorporated, priority 2001, published 2002).
Where two headings read alike, the source gives them in different places.

How the values were obtained:
curly-tail mouse embryos = assay: In vitro culture of curly-tail mouse embryos with inositols at 20 μg/ml for 24 hours; assay type: cell-based
Protocol: In in vitro studies, curly-tail mouse embryos were explanted into culture at 9.5 days after conception, corresponding to the onset of low spinal cord neural tube closure. Inositol additions were made at the start of culture and were maintained throughout the 24 hour culture period. Inositols were maintained at 20 μg/ml. At the end of culture, the embryos were dissected from their extraembryonic membranes, and crown-rump and posterior neuropore lengths were measured as indices of developmental growth, progression and low spinal neural tube closure.

[1] = system: curly tail mouse fetuses (NTDs characterized by spina bifida); assay: In vivo treatment of pregnant curly-tail mice by subcutaneous minipump, fetuses scored for NTDs; settings: subcutaneous 90 mg/kg/day, four to ten days
Protocol: (§1) In in vivo studies, pregnant curly-tail female mice were treated with inositols or PBS (control) by either subcutaneous injection or oral gavage. Using inositols at 75 mg/ml injected by subcutaneous minipump at […], a total daily dosage of 90 mg/kg/day was administered. Inositols were administered from gestational day 8.5 through day 18.5, and fetuses were scored for NTDs on days 12.5 and 18.5. For oral dosing, mice were administered via gavage with 400 mg/kg of inositol twice daily on gestational days 8.5 through 10.5, with fetuses scored for NTDs on day 12.5.

[2] = system: curly tail mouse fetuses (NTDs characterized by spina bifida); assay: In vivo treatment of pregnant curly-tail mice by oral gavage, fetuses scored for NTDs; settings: oral gavage 400 mg/kg twice daily, three days
Protocol: as §1

[3] = system: curly tail embryos (posterior neuropore closure); assay type: cell-based, mouse; settings: for Effect on posterior neuropore length: vs PBS-treated controls
Protocol: (§2) Mice—Curly tail mice are maintained as a homozygous, random-bred stock (Van Straaten, H. W. M. & Copp, A. J., Anat. Embryol. 203, 225-237 (2001)) Experimental litters were generated by timed matings, and the day of finding a copulation plug was designated embryonic day (E) 0.5.
In vitro inositol treatment—E9.5 embryos (17-19 somite stage) were cultured for 24 hours at 38° C. in whole rat serum. Thirty minutes after the start of culture, myo-inositol (Sigma, UK) or D-chiro-inositol (Insmed, Va., USA) was added to the medium (62.5 μl of inositol stock per ml rat serum) to a final concentration of 5, 10, 20 or 50 μg/ml inositol. Control cultures received an equal volume of phosphate buffered saline (PBS). Following culture, embryos were scored for: (i) posterior neuropore length (the distance from the rostral end of the posterior neuropore to the tip of the tail bud), (ii) crown-rump length and (iii) somite number.

[4] = system: curly tail fetuses (spina bifida and tail flexion defects); assay type: in vivo, mouse
Protocol: as §2
In utero inositol treatment (subcutaneous administration)—For sub-cutaneous administration, osmotic mini-pumps (capacity 100 μl, delivery rate 1 μl/hour; Model 1003D, Alzet) were filled with solutions of 30, 75 or 150 mg/ml inositol (delivering 29, 72 and 144 μg inositol/g body weight/day respectively for a 25 g mouse), or PBS as a control. Mini-pumps were incubated in sterile PBS at 37° C. for 4 hours and then implanted subcutaneously on the back of pregnant mice at E8.5. General anesthesia was induced by an intra-peritoneal injection of 0.01 ml/g body weight of a solution comprising 10% Hypnovel® (midazolam 5 mg/ml) and 25% Hypnorm® (fentanyl citrate 0.315 mg/ml, fluanisone 10 mg/ml) in sterile distilled water.
(§3) Pregnant females were killed at E18.5, and the total number of implantations, classified as viable fetuses or resorptions, was recorded. Fetuses were dissected from the uterus and inspected immediately for the presence of open lumbo-sacral spina bifida and tail flexion defects: the primary manifestations of the curly tail genetic defect.

[5] = system: curly tail fetuses (spina bifida and tail flexion defects); assay: In utero inositol treatment, oral dosing by gavage, fetuses inspected at E18.5; assay type: in vivo, mouse
Protocol: as §2
In utero inositol treatment (oral dosing)—For oral administration, pregnant mice were gavaged with 0.5 ml inositol solution in PBS at 12 hourly intervals from E8.5 to E10.5 (six doses in total; 800 μg/g body weight/day).
as §3

[6] = system: curly tail mice (spinal NTDs); settings: cultured embryos and offspring of curly tail mice treated during pregnancy; cited from earlier work
[7] = system: rat fibroblasts expressing the human insulin receptor; settings: cited from earlier work
[8] = subcutaneous 29 μg inositol/g body weight/day
[9] = subcutaneous 72 μg inositol/g body weight/day
[10] = subcutaneous 144 μg inositol/g body weight/day
[11] = oral 800 μg inositol/g body weight/day

Crown-rump length compared with PBS-treated controls [3]: no significant difference
No. uterine resorptions [5, 11]: 3
Resorptions as % of total number of implantations [5, 11]: 7.9%
Compound: O[C@H]1[C@H](O)[C@@H](O)[C@H](O)[C@@H](O)[C@H]1O [myo-inositol, reference compound]
Mean posterior neuropore length (curly-tail mouse embryos; 20 μg/ml, 24 hours, in vitro): 0.601±0.090
Mean posterior neuropore to crown-rump length ratio (curly-tail mouse embryos; 20 μg/ml, 24 hours, in vitro): 0.172 ±0.026
Fold decrease in mean posterior neuropore length (curly-tail mouse embryos; 24 hours of treatment in vitro): 6 fold
Number of fetuses showing NTDs characterized by spina bifida [1]: 4
Percent of treated fetuses showing spina bifida [1]: 6.3%
Number of fetuses showing NTDs characterized by spina bifida [2]: 3
Percent of treated fetuses showing spina bifida [2]: 8.6%
Effect on posterior neuropore length ([3]; 20 μg/ml): not different from PBS-treated controls
Effect on posterior neuropore length ([3]; 50 μg/ml): comparable effect
Likelihood of fetuses being normal vs PBS (ordinal multilevel regression) ([4]; subcutaneous): reached statistical significance
Curly tail, % of total for treatment group [4, 8]: 41.4%
Curly tail, number of fetuses [4, 8]: 12
Normal, % of total for treatment group [4, 8]: 37.9%
Normal, number of fetuses [4, 8]: 11
Spina bifida ± curly tail, % of total for treatment group [4, 8]: 20.7%
Spina bifida ± curly tail, number of fetuses [4, 8]: 6
Curly tail, % of total for treatment group [4, 9]: 55.2%
Curly tail, number of fetuses [4, 9]: 37
Normal, % of total for treatment group [4, 9]: 38.8%
Normal, number of fetuses [4, 9]: 26
Spina bifida ± curly tail, % of total for treatment group [4, 9]: 6.0%
Spina bifida ± curly tail, number of fetuses [4, 9]: 4
Curly tail, % of total for treatment group [4, 10]: 55.3%
Curly tail, number of fetuses [4, 10]: 52
Normal, % of total for treatment group [4, 10]: 36.2%
Normal, number of fetuses [4, 10]: 34
Spina bifida ± curly tail, % of total for treatment group [4, 10]: 8.5%
Spina bifida ± curly tail, number of fetuses [4, 10]: 8
Decrease in spina bifida frequency relative to PBS controls ([4]; subcutaneous 72 and 144 μg/g body weight/day): 54-56%
Curly tail, % of total for treatment group [5, 11]: 42.9%
Curly tail, number of fetuses [5, 11]: 15
No. viable fetuses [5, 11]: 35
Normal, % of total for treatment group [5, 11]: 48.6%
Normal, number of fetuses [5, 11]: 17
Spina bifida ± curly tail, % of total for treatment group [5, 11]: 8.6%
Spina bifida ± curly tail, number of fetuses [5, 11]: 3
Mean litter size ± SEM ([5]; oral 800 μg inositol/g body weight/day, viable fetuses per litter): 5.83 ± 0.48
Reduction in the frequency of spina bifida ([5]; oral 800 μg/g body weight/day): 53%
Effect on frequency of spina bifida among offspring ([5]; oral 800 μg/g body weight/day, E8.5 to E10.5): marked reduction in the frequency of spina bifida
Likelihood of fetuses being normal vs PBS (ordinal multilevel regression) ([5]; oral dosing study): did not differ significantly
Effect on incidence of spinal NTDs [6]: significantly reducing the incidence of spinal NTDs
Effect of insulin stimulation on incorporation into phospholipids [7]: only marginal
